{
  "source": "patent US4871774A",
  "about": "“Medical treatment” (The Boots Company PLC, priority 1987, dated 1989)",
  "key": {"[1]": {"test_system": "uptake of radiolabelled dopamine into freshly prepared synaptosomes from rat striatum", "test": "Inhibition of dopamine uptake in vitro by plasma from humans treated with drug (14C-dopamine, rat striatal synaptosomes)", "assay_type": "biochemical", "conditions": "plasma 3 h after 50 mg oral; for % Inhibition of dopamine uptake: hydrochloride monohydrate", "experimental": "(5) Inhibition of dopamine uptake in vitro by plasma from humans treated with drug\nThe plasma was separated by centrifugation at 2900×g for 20 minutes at room temperature in a Heraeus Christ minicentrifuge and was stored at -20° C. prior to analysis. The samples were thawed in a water bath at 37° C. for 10-15 minutes prior to commencement of the in vitro dopamine uptake assay which was performed as described in (3) above except ^14 C-dopamine was used. The assay was performed twice on plasma from each volunteer."}, "[2]": {"test_system": "uptake of dopamine into striatal synaptosomes", "test": "In vitro inhibition of dopamine uptake (14C-dopamine, rat striatal synaptosomes)", "assay_type": "biochemical, rat (Sprague-Dawley)", "conditions": "for IC50: 0.17 μM 14C-dopamine", "experimental": "(1) In vitro inhibition of dopamine uptake\nMale Sprague-Dawley rats (Charles River) were killed by cervical dislocation and the brains removed and placed in an ice-cold oxygenated Krebs solution containing 120 mM NaCl, 4.7 mM KCl, 2.1 mM KH2 PO4, 1.2 mM CaCl2, 0.6 mM MgSO4, 25 mM NaHCO3 and 11 mM glucose. The brains were then dissected according to the method of Glowinski and Iversen [J. Neurochem. (1966) 13 655-669] and the striata removed. The samples of striata were pooled, weighed and transferred to a glass homogenising vessel on ice, containing oxygenated 0.32M sucrose solution (20 volumes). […] The homogenate was centrifuged at 1000×g for 10 minutes at 4° C. and the supernatant containing a suspension of synaptosomes was used in the dopamine uptake inhibition tests described below. […] A solution of ^14 C-dopamine hydrochloride (Amersham International) was added (0.2 ml) to give a final concentration of 0.17 μM. The incubation was continued for a further 5 minutes before the contents of the tubes were filtered under vacuum through Whatman GF/F filters which were washed with ice-cold Krebs solution (2×5 ml). The filters were placed in scintillation vials containing 10 ml scintillation fluid (ES-299 supplied by Packard Instruments) and the radioactivity in the vials counted on a Packard 4530 scintillation counter. In each experiment there was a control tube in which no test compound was present, 3 tubes in which the compound being tested was present at one of three concentrations (100, 10 and 1 μM) and a background tube containing no test compound which was maintained at 0° C. to determine passive ^14 C-dopamine uptake. The count for each tube was registered in counts per minute (cpm) and the % inhibition of uptake (I) calculated from the formula [formula] […] The concentration which gave 50% inhibition of uptake was then calculated and is given below as the IC50 figure for each experiment."}, "[3]": {"test_system": "dopamine reuptake; unilateral nigrostriatal lesioned rats", "test": "Ipsilateral circling behaviour of unilateral nigrostriatal (6-OHDA) lesioned rats", "assay_type": "in vivo, rat (CD)", "conditions": "30 mg/kg oral", "excerpt": "The two tracts of the nigrostriatal dopamine system are independent and are located on either side of the midline of the brain. When one tract is destroyed using the specific neurotoxin, 6-hydroxydopamine (6-OHDA), rats will display characteristic circling behaviour after injection of dopaminergic drugs. The direction of rotation, however, is dependent on the stimulus employed. Drugs which inhibit dopamine reuptake can only function on the unlesioned side of the brain and induce circling towards the lesion site (known as ipsilateral circling.)\nMale CD rats (250-300 g: Charles River) were anaesthetised with `Equithesin` type anaesthetic (3.2 ml/kg i.p.) and secured in a stereotaxic frame (David Kopf Small Animal Stereotaxic Instrument DKI 900). After shaving the area, a saggital incision of 1.5-2 cm was made and skin flaps dissected from the skull. A small hole was made in the skull, using a No. 6 dental burr, to allow the tip of a 30 s.w.g. stainless steel cannula to be inserted to the left substantia nigra. This was located by using the following co-ordinates, using skull landmark bregma as the zero reference point; rostral-caudal -2.8; medial-lateral +2.0; dorsal-ventral -8.0 from the surface of the dura, all co-ordinates measured in millimetres. This system of co-ordinates is a modification of the de Groot system as described by Pellegrino et al (A stereotaxic atlas of the rat brain, 2nd Edition, Plenum Press 1979). 6-Hydroxydopamine HBr (2 μg/μl, as base: Sigma Chemical Co.) was injected into the left substantia nigra at 1 μl/min; a total of 8 μg was administered over a period of 4 minutes using an infusion pump (Braun `Perfusor` ED2). After removal of the cannula, the skin flaps were joined with a single everted suture and the animal allowed to recover.\nAfter 21 days, the circling behaviour of the rats was examined. They were placed, individually, in circular plastic arenas (30 cm diameter×12 cm high) for 1 hour, with no access to food or water during this period. […] One `turn` consisted of rotation through 360° in either direction. As rats were always lesioned on the left side of the brain, anticlockwise turns were ipsilateral.\nControl values were determined for all rats by observing their spontaneous circling behaviour in the arenas without prior dosing. The mean turns per minute was always less than 1.\nThe rats were challenged with an intraperitoneal dose of methamphetamine (2 mg/kg) and immediately placed in the arenas. In these experiments circling behaviour was monitored during two periods, 0-1 h and 4-5 h after dosing. Rats giving a mean of more than 5 ipsilateral turns per minute during the first hour in response to methamphetamine were used in subsequent tests. Following selection, the rats were used in groups of 5 or more rats to test the drug under investigation."}, "[4]": {"test_system": "uptake of dopamine into synaptosomes from rat striata", "test": "Inhibition of dopamine uptake in vitro by plasma from drug treated rats obtained over a period of time after a single 30 mg/kg dose", "assay_type": "biochemical", "conditions": "for % Inhibition of dopamine uptake - Mean (± SEM): 30 mg/kg oral", "experimental": "(4) Inhibition of dopamine uptake in vitro by plasma from drug treated rats obtained over a period of time after a single 30 mg/kg dose\nThe percentage inhibition of dopamine uptake was determined in a similar manner to that described in (3) above. […]"}},
  "note": "“And” between values parts separate entries of the source, which are not always exact repeats. Equal values may be shown once. Read-outs that look alike come from different tables or passages of the source.",
  "data": [
    {"smiles": "CC(C)CC(N(C)C)C1(c2ccc(Cl)cc2)CCC1.Cl.O", "note": "(stereo not drawn) [N,N-dimethyl-1-[1-(4-chlorophenyl)cyclobutyl]-3-methylbutylamine hydrochloride monohydrate]", "values": [
      {"measurement": "% Inhibition of dopamine uptake, Mean", "setting": "[1]; Volunteer 1, mean of two assays", "value": 11.6, "unit": "%"},
      {"measurement": "% Inhibition of dopamine uptake, Mean", "setting": "[1]; Volunteer 2, mean of two assays", "value": 8.6, "unit": "%"},
      {"measurement": "% Inhibition of dopamine uptake, Mean", "setting": "[1]; Volunteer 3, mean of two assays", "value": 15.7, "unit": "%"},
      {"measurement": "% Inhibition of dopamine uptake", "setting": "[1]; Volunteer 3, single assays (performed twice)", "value": "13.4% and 17.9%"},
      {"measurement": "% Inhibition of dopamine uptake, Mean", "setting": "[1]; Volunteer 4, mean of two assays", "value": 17.9, "unit": "%"},
      {"measurement": "% Inhibition of dopamine uptake, Mean", "setting": "[1]; Volunteer 5, mean of two assays", "value": 15.7, "unit": "%"},
      {"measurement": "% Inhibition of dopamine uptake", "setting": "[1]; Volunteer 5, single assays (performed twice)", "value": "13.0% and 18.4%"},
      {"measurement": "% Inhibition of dopamine uptake, Mean", "setting": "[1]; Volunteer 6, mean of two assays", "value": 16.1, "unit": "%"},
      {"measurement": "mean (±SEM) % inhibition of 14C-dopamine uptake by plasma from the six drug-treated volunteers", "setting": "[1]; mean of six volunteers", "value": "14.2±1.4", "unit": "%"},
      {"measurement": "% Inhibition of uptake", "setting": "[2]; 1 μM, Ex.1", "value": 31, "unit": "%"},
      {"measurement": "% Inhibition of uptake", "setting": "[2]; 1 μM, Ex.2", "value": 4, "unit": "%"},
      {"measurement": "% Inhibition of uptake", "setting": "[2]; 1 μM, Ex.3", "value": 12, "unit": "%"},
      {"measurement": "% Inhibition of uptake", "setting": "[2]; 10 μM, Ex.1", "value": 70, "unit": "%"},
      {"measurement": "% Inhibition of uptake", "setting": "[2]; 10 μM, Ex.2", "value": 35, "unit": "%"},
      {"measurement": "% Inhibition of uptake", "setting": "[2]; 10 μM, Ex.3", "value": 48, "unit": "%"},
      {"measurement": "% Inhibition of uptake", "setting": "[2]; 100 μM, Ex.1", "value": 96, "unit": "%"},
      {"measurement": "% Inhibition of uptake", "setting": "[2]; 100 μM, Ex.2", "value": 81, "unit": "%"},
      {"measurement": "% Inhibition of uptake", "setting": "[2]; 100 μM, Ex.3", "value": 86, "unit": "%"},
      {"measurement": "inhibition of 14C-dopamine uptake (in words)", "setting": "[2]; 100, 10 and 1 μM", "value": "inhibited ^14 C-dopamine uptake in a concentration-dependent manner"},
      {"measurement": "IC50", "setting": "[2]; Ex.1, 37° C., read-out: IC50", "value": 3.3, "unit": "µM"},
      {"measurement": "IC50", "setting": "[2]; Ex.2, 37° C., read-out: IC50", "value": 18, "unit": "µM"},
      {"measurement": "IC50", "setting": "[2]; Ex.3, 37° C., read-out: IC50", "value": 11, "unit": "µM"},
      {"measurement": "IC50", "setting": "[2]; mean of three replicate experiments, read-out: mean (±SEM) IC50 value for inhibition of dopamine uptake", "value": "11 ± 4.2", "unit": "µM"},
      {"measurement": "duration of action as an inhibitor of dopamine reuptake (in words)", "setting": "[3]", "value": "long lasting action as an inhibitor of dopamine reuptake"},
      {"measurement": "ipsilateral turns/min (Mean ± SEM)", "setting": "[3]; 0-1 hrs after dosing", "value": "3.0 ± 0.6", "unit": "turns/min"},
      {"measurement": "ipsilateral turns/min (Mean ± SEM)", "setting": "[3]; 4-5 hrs after dosing", "value": "6.7 ± 1.4", "unit": "turns/min"},
      {"measurement": "ipsilateral turns/min (Mean ± SEM)", "setting": "[3]; 8-9 hrs after dosing", "value": "8.6 ± 1.8", "unit": "turns/min"},
      {"measurement": "ipsilateral turns/min (Mean ± SEM)", "setting": "[3]; 24-25 hrs after dosing", "value": "6.2 ± 1.7", "unit": "turns/min"},
      {"measurement": "ipsilateral turns/min (Mean ± SEM)", "setting": "[3]; 48-49 hrs after dosing", "value": "1.7 ± 0.5", "unit": "turns/min"},
      {"measurement": "% Inhibition of dopamine uptake - Mean (± SEM)", "setting": "[4]; 1 hr after dosing", "value": "45.0 ± 4.1", "unit": "%"},
      {"measurement": "% Inhibition of dopamine uptake - Mean (± SEM)", "setting": "[4]; 3 hrs after dosing", "value": "63.0 ± 1.7", "unit": "%"},
      {"measurement": "% Inhibition of dopamine uptake - Mean (± SEM)", "setting": "[4]; 8 hrs after dosing", "value": "73.4 ± 3.5", "unit": "%"},
      {"measurement": "% Inhibition of dopamine uptake - Mean (± SEM)", "setting": "[4]; 24 hrs after dosing", "value": "31.5 ± 2.4", "unit": "%"},
      {"measurement": "% Inhibition of dopamine uptake - Mean (± SEM)", "setting": "[4]; 48 hrs after dosing", "value": "19.5 ± 5.2", "unit": "%"},
      {"measurement": "% Inhibition of dopamine uptake - Mean (± SEM)", "setting": "[4]; 72 hrs after dosing", "value": "10.4 ± 1.6", "unit": "%"},
      {"measurement": "persistence of inhibition of dopamine uptake by rat plasma (in words)", "setting": "[4]; single 30 mg/kg oral dose", "value": "persists for a considerable period of time after dosing"}
    ]}
  ]
}
